US20190276871A1, “Antimicrobial Cartridges and Processes for Antimicrobial Susceptibility Testing” (SeLux Diagnostics, Inc., priority 2017, published 2019)
≈ marks a conversion by molar mass, not a printed value. Read-outs that look alike come from different tables or passages of the source.

Columns and labels:
[1] = tested on: clinical isolate of S aureus; assay: Broth microdilution reference method; type: cell-based; details: read-out: MICs obtained from the broth microdilution reference method
Method: The antibiotics shown are vancomycin, daptomycin, ceftaroline and levofloxacin, of which the MICs obtained from the broth microdilution reference method for this strain were 0.5, 0.25, 0.12, and 0.25 μg/ml, respectively. A clinical isolate of S aureus was used. Data represents the TRF signal in RFUs. Graphs in the top row contain data from 384-well plates. Graphs in the bottom row contain data from 96-well plates.

patient sample microbes [2] = assay: AST on 384-well patient cartridge panel made from Master Plate, antimicrobial panel 1; type: cell-based; details: master cartridge format
Excerpt: (§1) An assay setup comprises preparation of patient (target) cartridge by dispensing antimicrobials were from the master cartridge or intermediate serial dilution cartridges into one or more 384 reservoir patient cartridge, each antimicrobial in about 7 serial dilutions in triplicate, and covering the dynamic range of each antimicrobial that is known to be effective and therefore should be reported. The dilution range included the expected minimum inhibitory concentration (MIC) for each antimicrobial. But most importantly, dilution ranges, that is, antimicrobial concentrations beyond the range known to be effective are included in the patient cartridge as per the present invention.
(§2) The remaining reservoirs of the 384 well patient cartridge are utilized for setting up test controls: a no-antimicrobial control (negative control) was included for each antimicrobial compound; and a positive control was included for each antimicrobial set, where a microorganism that is not susceptible to the antimicrobial was added to the well. Each control set was also dispensed at least in duplicate per 384 well cartridge. Additional test controls may be included as deemed necessary by one of skill in the art. Equal amount of a patient sample was dispensed to each of the wells in the cartridge, except in the wells designated for no-sample control, if included. The patient cartridge was ready for determination of susceptibility of microbes from the patient sample to the twelve antimicrobials at the range of concentrations applied, simultaneously. Multiple such plates can be set up in parallel for testing samples from multiple patients, each patient sample per plate. An AST assay was performed on the prepared patient cartridges.
(§3) Shown in Table 5 and Table 6, MIC results for antimicrobial panels 1 and 2 respectively using a master cartridge format and a 384 well patient cartridge (column 3) agrees reliably with that run by standard 96 well AST assay plate (right hand column).

patient sample microbes [3] = assay: Standard 96-well AST assay plate, antimicrobial panel 1; type: cell-based
Excerpt: as §3

[4] = MIC, antimicrobial panel 1; cited from earlier work
patient sample microbes [5] = assay: AST on 384-well patient cartridge panel made from Master Plate, antimicrobial panel 2; type: cell-based; set-up: unit not given here; details: master cartridge format
Excerpt: as §1, §2, §3

patient sample microbes [6] = assay: Standard 96-well AST assay plate, antimicrobial panel 2; type: cell-based; set-up: unit not given here
Excerpt: as §3

[7] = MIC, antimicrobial panel 2; cited from earlier work

Compound	MIC ([1]; clinical isolate of S aureus)	MICs obtained from panel made from Master Plate (patient sample microbes [2])	MICs obtained from 96-well Antibiotic Panel (patient sample microbes [3])	Quality Control Range [4]	MICs obtained from panel made from Master Plate (patient sample microbes [5])	MICs obtained from 96-well Antibiotic Panel (patient sample microbes [6])	Quality Control Range [7]	MIC [1]
CCCCCCCCCC(=O)N[C@@H](Cc1c[nH]c2ccccc12)C(=O)N[C@H](CC(N)=O)C(=O)N[C@@H](CC(=O)O)C(=O)N[C@@H]1C(=O)NCC(=O)N[C@@H](CCCN)C(=O)N[C@@H](CC(=O)O)C(=O)N[C@H](C)C(=O)N[C@@H](CC(=O)O)C(=O)NCC(=O)N[C@H](CO)C(=O)N[C@@H]([C@H](C)CC(=O)O)C(=O)N[C@@H](CC(=O)c2ccccc2N)C(=O)O[C@@H]1C [daptomycin]	0.25 µg/mL (≈ 0.154 µM)	–	–	–	–	–	–	–
NC[C@H]1O[C@H](O[C@H]2[C@H](O)[C@@H](O[C@H]3O[C@H](CO)[C@@H](O)[C@H](N)[C@H]3O)[C@H](N)C[C@@H]2N)[C@H](N)C[C@@H]1O [Tobramycin]	–	0.5	1	0.25-1	–	–	–	–
CO[C@H]1/C=C/O[C@@]2(C)Oc3c(C)c(O)c4c(O)c(c(/C=N/N5CCN(C)CC5)c(O)c4c3C2=O)NC(=O)/C(C)=C\C=C\[C@H](C)[C@H](O)[C@@H](C)[C@@H](O)[C@@H](C)[C@H](OC(C)=O)[C@@H]1C [Rifampin]	–	–	–	–	≤0.25	0.004	0.004-0.015	–
CN[C@H](CC(C)C)C(=O)N[C@H]1C(=O)N[C@@H](CC(N)=O)C(=O)N[C@H]2C(=O)N[C@H]3C(=O)N[C@H](C(=O)N[C@H](C(=O)O)c4cc(O)cc(O)c4-c4cc3ccc4O)[C@H](O)c3ccc(c(Cl)c3)Oc3cc2cc(c3O[C@@H]2O[C@H](CO)[C@@H](O)[C@H](O)[C@H]2O[C@H]2C[C@](C)(N)[C@H](O)[C@H](C)O2)Oc2ccc(cc2Cl)[C@H]1O [vancomycin]	–	–	–	–	–	–	–	0.5 µg/mL (≈ 0.345 µM)
Piperacillin-tazobactam	–	≤ 1 µg/mL	4 µg/mL	1-4	–	–	–	–
CC1(C)S[C@@H]2[C@H](NC(=O)[C@H](N)c3ccccc3)C(=O)N2[C@H]1C(=O)O [Ampicillin]	–	4	8	2-8	1	1	0.5-2	–
NCC[C@H](O)C(=O)N[C@@H]1C[C@H](N)[C@@H](O[C@H]2O[C@H](CN)[C@@H](O)[C@H](O)[C@H]2O)[C@H](O)[C@H]1O[C@H]1O[C@H](CO)[C@@H](O)[C@H](N)[C@H]1O [Amikacin]	–	4	4	0.5-4	–	–	–	–
CC(C)(O/N=C(\C(=O)N[C@@H]1C(=O)N2C(C(=O)[O-])=C(C[n+]3ccccc3)CS[C@H]12)c1csc(N)n1)C(=O)O [Ceftazidime]	–	<1	0.25	0.06-0.5	4	8	4-16	–
Ampicillin-Sulbactam	–	8 µg/mL	8 µg/mL	2-8	–	–	–	–
Cn1nnc(-c2ccc(-c3ccc(N4C[C@H](CO)OC4=O)cc3F)cn2)n1 [Tedizolid]	–	–	–	–	0.25	0.5	0.25-1	–
C[C@H]1COc2c(N3CCN(C)CC3)c(F)cc3c(=O)c(C(=O)O)cn1c23 [Levofloxacin]	0.25 µg/mL (≈ 0.692 µM)	≤0.25	≤0.06	–	≤0.25	0.25	–	–
CCO/N=C(\C(=O)N[C@@H]1C(=O)N2C(C(=O)[O-])=C(Sc3nc(-c4cc[n+](C)cc4)cs3)CS[C@H]12)c1nsc(N)n1 [Ceftaroline]	0.12 µg/mL (≈ 0.198 µM)	–	–	–	0.5	0.25	–	–
CO/N=C(\C(=O)N[C@@H]1C(=O)N2C(C(=O)O)=C(CSc3nc(=O)c(=O)[nH]n3C)CS[C@H]12)c1csc(N)n1 [Ceftriaxone]	–	≤0.125	≤0.12	0.03-0.12	2	4	1-8	–
Cc1onc(-c2ccccc2)c1C(=O)N[C@@H]1C(=O)N2[C@@H]1SC(C)(C)[C@@H]2C(=O)O [Oxacillin]	–	–	–	–	0.5	0.5	0.12-0.5	–
CO/N=C(\C(=O)N[C@@H]1C(=O)N2C(C(=O)[O-])=C(C[N+]3(C)CCCC3)CS[C@H]12)c1csc(N)n1 [Cefepime]	–	≤0.25	≤0.03	0.015-0.12	–	–	–	–
CC(=O)NC[C@H]1CN(c2ccc(N3CCOCC3)c(F)c2)C(=O)O1 [Linezolid]	–	–	–	–	2	2	1-4	–
